Measurements from article PMC12951562, “SH2scan: Mapping SH2 Domain-Ligand Binding Selectivity for Inhibitors and Degraders” (Journal of Medicinal Chemistry, 2026).

Assays:
Assay in all cases: biochemical
Type in all cases: binding
[1] = target: T1, APS (SH2B2) (Homo sapiens, UniProt O14492); conditions: primary screen, 10 μM; read-out: percent of DMSO vehicle control
T1 construct: the DNA-tagged SH2 domain concentrations used in this study were <0.1 nM; made in house; host or cells: HEK293 (transient transfection; unpurified extract)

[2] = target: T2, FER (Homo sapiens, UniProt P16591); conditions: for Kd: dose-response, read-out: KD; for remaining activity at 10 µM: primary screen, read-out: percent of DMSO vehicle control
T2 construct: the DNA-tagged SH2 domain concentrations used in this study were <0.1 nM; made in house; host or cells: HEK293 (transient transfection; unpurified extract)

[3] = target: T3, FES (Homo sapiens, UniProt P07332); conditions: primary screen, 10 μM; read-out: percent of DMSO vehicle control
T3 construct: the DNA-tagged SH2 domain concentrations used in this study were <0.1 nM; made in house; host or cells: HEK293 (transient transfection; unpurified extract)

[4] = target: T4, LNK (SH2B3) (Homo sapiens, UniProt Q9UQQ2); conditions: for remaining activity at 10 µM: primary screen, read-out: percent of DMSO vehicle control
T4 construct: the DNA-tagged SH2 domain concentrations used in this study were <0.1 nM; made in house; host or cells: HEK293 (transient transfection, unpurified extract)

[5] = target: T5, PIK3R3(SH2dom.C-term.) (Homo sapiens, UniProt Q92569); conditions: for Kd: dose-response, read-out: KD; for remaining activity at 10 µM: primary screen, read-out: percent of DMSO vehicle control
T5 construct: SH2dom.C-term. denotes SH2 domain closest to C-terminus of protein; made in house; host or cells: HEK293 (transient transfection, unpurified extract)

[6] = target: T6, PTPN6(SH2dom.N-term.) (Homo sapiens, UniProt P29350); conditions: for remaining activity at 10 µM: primary screen, read-out: percent of DMSO vehicle control
T6 construct: SH2dom.N-term. denotes SH2 domain closest to N-terminus of protein; made in house; host or cells: HEK293 (transient transfection, unpurified extract)
T6 sequence (P29350 4-100 limits assumed): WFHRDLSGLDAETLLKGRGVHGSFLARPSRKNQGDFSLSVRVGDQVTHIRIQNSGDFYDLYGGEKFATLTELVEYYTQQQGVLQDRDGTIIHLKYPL

[7] = target: T7, SLP76 (Homo sapiens, UniProt Q13094); conditions: primary screen, 10 μM; read-out: percent of DMSO vehicle control
T7 construct: made in house; host or cells: HEK293 (transient transfection), unpurified extract
T7 sequence (Q13094 1-533): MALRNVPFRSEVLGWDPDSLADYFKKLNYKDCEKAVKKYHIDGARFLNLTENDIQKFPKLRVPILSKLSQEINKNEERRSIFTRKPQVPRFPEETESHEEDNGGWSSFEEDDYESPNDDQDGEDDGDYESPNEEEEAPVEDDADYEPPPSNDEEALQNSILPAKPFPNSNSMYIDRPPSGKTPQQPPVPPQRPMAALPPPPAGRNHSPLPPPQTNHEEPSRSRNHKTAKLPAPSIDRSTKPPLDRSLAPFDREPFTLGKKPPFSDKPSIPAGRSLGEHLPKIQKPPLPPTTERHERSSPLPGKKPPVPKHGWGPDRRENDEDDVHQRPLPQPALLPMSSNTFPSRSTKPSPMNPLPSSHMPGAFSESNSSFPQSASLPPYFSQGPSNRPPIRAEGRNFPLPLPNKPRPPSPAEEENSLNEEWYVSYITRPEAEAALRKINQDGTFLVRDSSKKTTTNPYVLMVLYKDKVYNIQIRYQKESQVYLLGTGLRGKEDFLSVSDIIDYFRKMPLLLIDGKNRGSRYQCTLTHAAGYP

[8] = target: T8, SRMS (Homo sapiens, UniProt Q9H3Y6); conditions: for KD: dose-response; for remaining activity at 10 µM: primary screen, read-out: percent of DMSO vehicle control
T8 construct: made in house; host or cells: HEK293 (transient transfection), unpurified extract

[9] = target: T9, STAT1 (Homo sapiens, UniProt P42224); conditions: for Kd: dose-response, read-out: KD; for remaining activity at 10 µM: primary screen, read-out: percent of DMSO vehicle control
T9 construct: made in house; host or cells: HEK293 (transient transfection), unpurified extract
T9 sequence (P42224 1-750): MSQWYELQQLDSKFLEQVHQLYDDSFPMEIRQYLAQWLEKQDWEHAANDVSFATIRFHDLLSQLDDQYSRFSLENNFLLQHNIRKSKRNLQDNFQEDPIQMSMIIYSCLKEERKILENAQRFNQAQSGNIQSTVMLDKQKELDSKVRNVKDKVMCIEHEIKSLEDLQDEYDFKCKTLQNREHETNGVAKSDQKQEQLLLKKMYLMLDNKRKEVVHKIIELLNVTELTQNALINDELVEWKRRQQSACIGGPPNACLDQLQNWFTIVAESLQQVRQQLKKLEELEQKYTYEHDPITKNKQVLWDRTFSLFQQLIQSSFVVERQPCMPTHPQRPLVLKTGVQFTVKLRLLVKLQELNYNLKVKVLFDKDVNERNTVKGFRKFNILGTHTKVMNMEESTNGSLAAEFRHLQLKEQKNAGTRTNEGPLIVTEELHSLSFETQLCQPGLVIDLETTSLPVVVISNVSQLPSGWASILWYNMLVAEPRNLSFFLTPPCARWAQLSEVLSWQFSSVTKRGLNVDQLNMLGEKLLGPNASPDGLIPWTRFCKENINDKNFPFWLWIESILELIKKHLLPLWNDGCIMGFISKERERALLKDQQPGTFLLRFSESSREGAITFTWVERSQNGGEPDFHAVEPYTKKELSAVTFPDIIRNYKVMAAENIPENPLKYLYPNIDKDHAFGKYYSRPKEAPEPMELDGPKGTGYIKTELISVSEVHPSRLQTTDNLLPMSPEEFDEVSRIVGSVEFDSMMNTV

[10] = target: T10, VAV1 (Homo sapiens, UniProt P15498); conditions: primary screen, 10 μM; read-out: percent of DMSO vehicle control
T10 construct: made in house; host or cells: HEK293 (transient transfection), unpurified extract
T10 sequence (P15498 1-845): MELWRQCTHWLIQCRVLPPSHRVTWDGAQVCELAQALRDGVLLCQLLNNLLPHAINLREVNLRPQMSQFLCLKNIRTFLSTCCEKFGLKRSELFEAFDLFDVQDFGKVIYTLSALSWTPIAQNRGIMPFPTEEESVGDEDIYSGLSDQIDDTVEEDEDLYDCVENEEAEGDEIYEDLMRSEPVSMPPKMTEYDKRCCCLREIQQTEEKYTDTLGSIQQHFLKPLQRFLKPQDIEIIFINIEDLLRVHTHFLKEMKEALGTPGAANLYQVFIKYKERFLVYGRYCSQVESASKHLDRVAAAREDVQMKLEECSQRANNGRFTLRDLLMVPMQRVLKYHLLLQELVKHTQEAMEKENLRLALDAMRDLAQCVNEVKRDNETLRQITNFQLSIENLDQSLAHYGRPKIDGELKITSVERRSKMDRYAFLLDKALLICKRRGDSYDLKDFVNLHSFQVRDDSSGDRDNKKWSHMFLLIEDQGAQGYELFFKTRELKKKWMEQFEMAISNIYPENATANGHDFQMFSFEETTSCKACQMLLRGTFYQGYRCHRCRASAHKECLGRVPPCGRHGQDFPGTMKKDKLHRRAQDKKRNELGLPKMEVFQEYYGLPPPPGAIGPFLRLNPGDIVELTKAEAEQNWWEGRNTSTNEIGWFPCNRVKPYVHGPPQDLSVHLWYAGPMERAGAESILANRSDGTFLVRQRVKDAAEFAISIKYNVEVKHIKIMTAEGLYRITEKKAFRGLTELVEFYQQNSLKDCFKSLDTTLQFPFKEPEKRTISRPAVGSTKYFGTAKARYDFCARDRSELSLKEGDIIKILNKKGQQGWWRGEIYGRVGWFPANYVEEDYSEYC

T1 sequence (O14492 417-515 limits assumed): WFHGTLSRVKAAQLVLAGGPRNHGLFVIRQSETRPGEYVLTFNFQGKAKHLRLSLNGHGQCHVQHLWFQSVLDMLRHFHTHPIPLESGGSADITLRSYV
T2 sequence (P16591 460-550 limits assumed): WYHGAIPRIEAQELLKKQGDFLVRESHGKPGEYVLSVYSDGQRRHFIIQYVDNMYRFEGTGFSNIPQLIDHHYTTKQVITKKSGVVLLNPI
T8 sequence (Q9H3Y6 whole entry): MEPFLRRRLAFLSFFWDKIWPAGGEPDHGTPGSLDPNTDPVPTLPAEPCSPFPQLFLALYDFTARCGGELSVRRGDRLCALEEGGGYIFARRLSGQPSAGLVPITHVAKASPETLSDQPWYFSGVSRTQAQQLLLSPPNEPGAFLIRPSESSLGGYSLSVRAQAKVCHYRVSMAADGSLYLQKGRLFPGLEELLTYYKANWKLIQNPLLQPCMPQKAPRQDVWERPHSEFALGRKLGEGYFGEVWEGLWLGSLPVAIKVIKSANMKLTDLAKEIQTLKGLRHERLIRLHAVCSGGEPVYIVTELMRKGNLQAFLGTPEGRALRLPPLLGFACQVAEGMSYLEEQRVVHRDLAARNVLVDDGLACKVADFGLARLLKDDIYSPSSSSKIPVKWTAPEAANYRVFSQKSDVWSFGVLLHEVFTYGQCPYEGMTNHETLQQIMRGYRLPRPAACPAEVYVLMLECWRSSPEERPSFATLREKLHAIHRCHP
T4 sequence (Q9UQQ2 364-462 limits assumed): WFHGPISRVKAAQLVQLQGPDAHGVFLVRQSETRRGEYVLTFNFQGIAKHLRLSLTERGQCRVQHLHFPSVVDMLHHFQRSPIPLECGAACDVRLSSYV
T3 sequence (P07332 460-549 limits assumed): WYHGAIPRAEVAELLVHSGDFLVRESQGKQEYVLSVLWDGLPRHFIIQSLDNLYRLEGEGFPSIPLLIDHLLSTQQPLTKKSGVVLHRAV

In the case of C/C(=C\C(=O)N[C@H](C(=O)N1CCC[C@H]1C(=O)N(c1ccccc1)c1ccc(I)cc1)C(C)(C)C)c1ccc(OP(=O)(O)O)cc1 [STAT6-IN-1], the remaining activity at 10 µM [1] is reported as 45.3 ± 5.2%, the Kd [2] is reported as 1400 ± 71 nM and the remaining activity at 10 µM [2] is reported as 8.5 ± 0.1%. For the same molecule, the remaining activity at 10 µM [3] was 66.3 ± 6.4%, the Kd ([4]; dose-response, read-out: KD) was 2300 ± 140 nM and the remaining activity at 10 µM [4] was 6.9 ± 3.8%. It also gave a Kd [5] of 780 ± 42 nM, a remaining activity at 10 µM [5] of 1 ± 0.1% and a remaining activity at 10 µM [6] of 69.7%. For the same molecule, the remaining activity at 10 µM [7] was 50.8 ± 0.4%, the KD [8] was “No Hit” and the remaining activity at 10 µM [8] was 7.6 ± 0.5%. It also gave a Kd [9] of 330 ± 73 nM, a remaining activity at 10 µM [9] of 0% and a remaining activity at 10 µM [10] of 55.3 ± 2.6%.

In the case of CC(C)(C)[C@H](NC(=O)/C=C/c1ccc(OP(=O)(O)O)cc1)C(=O)N1CCC[C@H]1C(=O)N(c1ccccc1)c1ccc(I)cc1 [STAT6-IN-3], the remaining activity at 10 µM [1] is reported as 66.4 ± 17.9%, the Kd [2] is reported as 8000 ± 8700 nM and the remaining activity at 10 µM [2] is reported as 10.7 ± 34%. It also gave a remaining activity at 10 µM [3] of 82 ± 13.1%, a remaining activity at 10 µM [4] of 62 ± 5.7% and a Kd [5] of 1020 ± 260 nM. For the same molecule, the remaining activity at 10 µM [5] was 26.9 ± 10.2%, the remaining activity at 10 µM [6] was 77.4 ± 15.8% and the remaining activity at 10 µM [7] was 93.6 ± 30.3%. The KD [8] was “No Hit”, the remaining activity at 10 µM [8] was 8.5 ± 53.2% and the Kd [9] was 670 ± 330 nM. For the same molecule, the remaining activity at 10 µM [9] was 0.7 ± 0.6% and the remaining activity at 10 µM [10] was 67.6 ± 32.1%.

O=C(COc1ccc2cc(C(=O)Nc3ccccc3)ccc2c1)NCc1ccc(OP(=O)(O)O)c(OP(=O)(O)O)c1 [Stafib-1] gave a remaining activity at 10 µM [1] of 64.6 ± 31.3%, a Kd [2] of 1900 nM and a remaining activity at 10 µM [2] of 10.8%. The remaining activity at 10 µM [3] was 116%, the remaining activity at 10 µM [4] was 94.8 ± 14.4% and the remaining activity at 10 µM [5] was 86.5%. The Kd ([6]; dose-response, read-out: KD) was 13000 nM, the remaining activity at 10 µM [6] was 27.8 ± 4.2% and the remaining activity at 10 µM [7] was 97.5 ± 31%. For the same molecule, the KD [8] was “No Hit”, the remaining activity at 10 µM [8] was 8.9 ± 56.2% and the Kd [9] was 37000 nM. It also gave a remaining activity at 10 µM [9] of 48.2 ± 5.4% and a remaining activity at 10 µM [10] of 106%.
